Measurements as given in article PMC6310130 (Molecular and biochemical parasitology, 2014).
Where a SMILES comes first, the peptide text is derived from it. [ ]: non-standard residue; d: D form. The star is where a group is joined. Sta = CC(C)C[C@H](N)[C@@H](O)CC(=O)O; Isovaleryl = CC(C)CC(=O)*

Target: Plasmepsin V (Plasmodium falciparum, UniProt Q8I6Z5)
Test: fluorogenic HRPII peptide cleavage assay, recombinant refolded enzyme, pH […]
Type: biochemical

Sequence of Plasmepsin V (Q8I6Z5 81-521): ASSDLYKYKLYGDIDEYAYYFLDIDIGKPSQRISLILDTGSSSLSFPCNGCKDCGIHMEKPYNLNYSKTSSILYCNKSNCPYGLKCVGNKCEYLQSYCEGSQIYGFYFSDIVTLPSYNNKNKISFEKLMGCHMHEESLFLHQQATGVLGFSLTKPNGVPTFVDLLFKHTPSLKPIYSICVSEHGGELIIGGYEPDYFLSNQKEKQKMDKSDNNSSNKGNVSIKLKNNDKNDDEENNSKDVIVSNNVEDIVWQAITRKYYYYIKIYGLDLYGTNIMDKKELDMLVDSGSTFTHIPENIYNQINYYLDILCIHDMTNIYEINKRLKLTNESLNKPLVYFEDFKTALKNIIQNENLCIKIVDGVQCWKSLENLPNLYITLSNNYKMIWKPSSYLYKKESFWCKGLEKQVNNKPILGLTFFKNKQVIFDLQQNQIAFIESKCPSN

Work on `CC(C)CC(=O)N[C@H](C(=O)N[C@H](C(=O)N[C@@H](CC(C)C)[C@@H](O)CC(=O)N[C@@H](C)C(=O)N[C@@H](CC(C)C)[C@@H](O)CC(=O)O)C(C)C)C(C)C` [pepstatin A] (Isovaleryl-VV[Sta]A[Sta]-OH) yielded an IC50 of 22 µM.
Work on KNI-10743 yielded an IC50 of 44 µM.
Compound KNI-10742 has an IC50 of 108 µM.
